Experimental data: ChEMBL document CHEMBL1212772 (2010)
≈ marks a conversion by molar mass, not a printed value.

Legend:
Assay type in all cases: functional
Klebsiella pneumoniae [1] = assay: Antimicrobial activity against Klebsiella pneumoniae OC 4238 overexpressing beta-lactamase SHV-1 assessed as inhibition of growth by broth dilution method
Klebsiella pneumoniae [2] = assay: Antimicrobial activity against wild type Klebsiella pneumoniae OC 15263 expressing beta-lactamase SHV-1 assessed as inhibition of growth by broth dilution method
Escherichia coli [3] = assay: Antimicrobial activity against Escherichia coli OC 6697 expressing beta-lactamase CMY-2 and containing plasmid AmpC assessed as inhibition of growth by broth dilution method
Escherichia coli [4] = assay: Antimicrobial activity against Escherichia coli OC 11732 expressing extended-spectrum beta-lactamase CTX-M-15 assessed as inhibition of growth by broth dilution method
Escherichia coli [5] = assay: Antimicrobial activity against Escherichia coli DH5-alpha expressing beta-lactamase TEM-1 assessed as inhibition of growth by broth dilution method
Escherichia coli [6] = assay: Antimicrobial activity against wild type Escherichia coli ATCC 25922 deficient in beta-lactamase assessed as inhibition of growth by broth dilution method
Klebsiella pneumoniae [7] = assay: Antimicrobial activity against Klebsiella pneumoniae OC 4094 expressing extended-spectrum Beta-lactamase TEM-26 assessed as inhibition of growth by broth dilution method
Klebsiella pneumoniae [8] = assay: Antimicrobial activity against Klebsiella pneumoniae OC 5367 expressing beta-lactamase KPC-2 and containing Carbapenemase assessed as inhibition of growth by broth dilution method
Klebsiella oxytoca = assay: Antimicrobial activity against wild type Klebsiella oxytoca OC 4076 expressing Beta-lactamase K1 assessed as inhibition of growth by broth dilution method
Serratia marcescens [9] = assay: Antimicrobial activity against wild type Serratia marcescens OC 7555 deficient in beta-lactamase assessed as inhibition of growth by broth dilution method
Serratia marcescens [10] = assay: Antimicrobial activity against wild type Serratia marcescens OC 7554 expressing beta-lactamase SME-3 and containing Carbapenemase assessed as inhibition of growth by broth dilution method
Enterobacter cloacae = assay: Antimicrobial activity against Enterobacter cloacae OC 4080 overexpressing beta-lactamase AmpC assessed as inhibition of growth by broth dilution method
Pseudomonas aeruginosa [11] = assay: Antimicrobial activity against wild type Pseudomonas aeruginosa ATCC 27853 expressing beta-lactamase AmpC assessed as inhibition of growth by broth dilution method
Pseudomonas aeruginosa [12] = assay: Antimicrobial activity against Pseudomonas aeruginosa OC 4352 overexpressing beta-lactamase AmpC assessed as inhibition of growth by broth dilution method
Pseudomonas aeruginosa [13] = assay: Antimicrobial activity against Pseudomonas aeruginosa OC 13996 expressing beta-lactamase IMP-1 and containing Carbapenemase assessed as inhibition of growth by broth dilution method
Pseudomonas aeruginosa [14] = assay: Antimicrobial activity against Pseudomonas aeruginosa OC 7052 expressing beta-lactamase VIM-2 and containing Carbapenemase assessed as inhibition of growth by broth dilution method
Pseudomonas aeruginosa [15] = assay: Antimicrobial activity against Pseudomonas aeruginosa OC 12115 expressing beta-lactamase SPM-1 and containing Carbapenemase assessed as inhibition of growth by broth dilution method
Pseudomonas aeruginosa [16] = assay: Antimicrobial activity against Pseudomonas aeruginosa OC 4083 expressing beta-lactamase OXA-10 and containing Oxacillinase assessed as inhibition of growth by broth dilution method
Acinetobacter baumannii [17] = assay: Antimicrobial activity against wild type Acinetobacter baumannii OC 16708 deficient in beta-lactamase assessed as inhibition of growth by broth dilution method
Acinetobacter baumannii [18] = assay: Antimicrobial activity against Acinetobacter baumannii OC 11738 expressing beta-lactamase OXA-23 and containing Carbapenemase assessed as inhibition of growth by broth dilution method

| SMILES | MIC (Klebsiella pneumoniae [1]) [µg/mL] | MIC (Klebsiella pneumoniae [2]) [µg/mL] | MIC (Escherichia coli [3]) [µg/mL] | MIC (Escherichia coli [4]) [µg/mL] | MIC (Escherichia coli [5]) [µg/mL] | MIC (Escherichia coli [6]) [µg/mL] | MIC (Klebsiella pneumoniae [7]) [µg/mL] | MIC (Klebsiella pneumoniae [8]) [µg/mL] | MIC (Klebsiella oxytoca) [µg/mL] | MIC (Serratia marcescens [9]) [µg/mL] | MIC (Serratia marcescens [10]) [µg/mL] | MIC (Enterobacter cloacae) [µg/mL] | MIC (Pseudomonas aeruginosa [11]) [µg/mL] | MIC (Pseudomonas aeruginosa [12]) [µg/mL] | MIC (Pseudomonas aeruginosa [13]) [µg/mL] | MIC (Pseudomonas aeruginosa [14]) [µg/mL] | MIC (Pseudomonas aeruginosa [15]) [µg/mL] | MIC (Pseudomonas aeruginosa [16]) [µg/mL] | MIC (Acinetobacter baumannii [17]) [µg/mL] | MIC (Acinetobacter baumannii [18]) [µg/mL] |
| --- | --- | --- | --- | --- | --- | --- | --- | --- | --- | --- | --- | --- | --- | --- | --- | --- | --- | --- | --- | --- |
| CC(C)(O/N=C(\C(=O)N[C@@H]1C(=O)N2C(C(=O)[O-])=C(C[n+]3ccccc3)CS[C@H]12)c1csc(N)n1)C(=O)O [CEFTAZIDIME] | 2 (≈ 3.66 µM) | 0.12 (≈ 0.22 µM) | > 128 | 32 (≈ 58.5 µM) | 0.5 (≈ 0.915 µM) | 0.25 (≈ 0.457 µM) | > 256 | 32 (≈ 58.5 µM) | 1 (≈ 1.83 µM) | 0.5 (≈ 0.915 µM) | 0.5 (≈ 0.915 µM) | 32 (≈ 58.5 µM) | 2 (≈ 3.66 µM) | 32 (≈ 58.5 µM) | > 256 | 64 (≈ 117 µM) | > 256 | > 4 | 4 (≈ 7.32 µM) | > 256 |
| C[C@@H](O)[C@H]1C(=O)N2C(C(=O)O)=C(S[C@@H]3CN[C@H](CNS(N)(=O)=O)C3)[C@H](C)[C@H]12 [DORIPENEM] | 0.06 (≈ 0.143 µM) | 0.06 (≈ 0.143 µM) | 0.06 (≈ 0.143 µM) | 0.06 (≈ 0.143 µM) | 0.06 (≈ 0.143 µM) | 0.03 (≈ 0.0713 µM) | 0.12 (≈ 0.285 µM) | 8 (≈ 19 µM) | 0.06 (≈ 0.143 µM) | 0.06 (≈ 0.143 µM) | 128 (≈ 304 µM) | 0.25 (≈ 0.595 µM) | 0.5 (≈ 1.19 µM) | 0.5 (≈ 1.19 µM) | > 256 | 32 (≈ 76.1 µM) | > 256 | 2 (≈ 4.76 µM) | 0.25 (≈ 0.595 µM) | 32 (≈ 76.1 µM) |
| C[C@@H](O)[C@H]1C(=O)N2C(C(=O)O)=C(SCCNC=N)C[C@H]12 [IMIPENEM ANHYDROUS] | 0.25 (≈ 0.835 µM) | 0.5 (≈ 1.67 µM) | 0.5 (≈ 1.67 µM) | 0.25 (≈ 0.835 µM) |  |  | 0.5 (≈ 1.67 µM) | 16 (≈ 53.4 µM) | 0.25 (≈ 0.835 µM) | 0.25 (≈ 0.835 µM) | > 256 | 1 (≈ 3.34 µM) | 2 (≈ 6.68 µM) | 2 (≈ 6.68 µM) | > 256 | 64 (≈ 214 µM) | > 256 | 1 (≈ 3.34 µM) | 0.25 (≈ 0.835 µM) | 64 (≈ 214 µM) |
| C[C@@H](O)[C@H]1C(=O)N2C(C(=O)O)=C(S[C@@H]3CN[C@H](C(=O)N(C)C)C3)[C@H](C)[C@H]12 [MEROPENEM] | 0.03 (≈ 0.0782 µM) | 0.03 (≈ 0.0782 µM) | 0.06 (≈ 0.156 µM) | 0.03 (≈ 0.0782 µM) | 0.03 (≈ 0.0782 µM) | 0.03 (≈ 0.0782 µM) | 0.06 (≈ 0.156 µM) |  | 0.06 (≈ 0.156 µM) | 0.03 (≈ 0.0782 µM) | 128 (≈ 334 µM) | 0.25 (≈ 0.652 µM) | 0.5 (≈ 1.3 µM) | 0.5 (≈ 1.3 µM) | > 256 | 32 (≈ 83.4 µM) | > 256 | 2 (≈ 5.22 µM) | 0.25 (≈ 0.652 µM) | 64 (≈ 167 µM) |
